Results from patent US8343513B2, “Prevention of molecular weight reduction of the polymer, impurity formation and gelling in polymer compositions” (Oakwood Laboratories, LLC, priority 2003, dated 2013).
Where a SMILES comes first, the peptide text is derived from it. [ ]: non-standard residue; d: D form. The star is where a group is joined. dPhe(4-Cl) = N[C@H](Cc1ccc(Cl)cc1)C(=O)O; Nicotinoyl(6-NH2) = Nc1ccc(C(=O)*)cn1; d2Nal = N[C@H](Cc1ccc2ccccc2c1)C(=O)O; Lys(iPr) = CC(C)NCCCC[C@H](N)C(=O)O; d3Pal = N[C@H](Cc1cccnc1)C(=O)O; Picolinoyl = O=C(c1ccccn1)*; dOrn = NCCC[C@@H](N)C(=O)O

Key:
[1] = Orntide solubility and gelling in solvents and dispersed phase; assay type: physicochemical
Excerpt: However, most of the GnRH analogs are soluble only at certain concentrations (at very low concentrations of antagonists and moderate concentrations of agonists) beyond which these analogs pose solubility and gelling problems when dissolved in these solvents.
The stability was followed for a day.

[2] = Screening of octreotide related substance formation with polymers and acid additives, 40° C. 24 and 48 hour; assay type: physicochemical; details: octreotide with polymer in DCM/methanol
[3] = cited from earlier work

Row | Compound | related substances formation in words [2] | also measured
1 | CC(=O)N[C@H](Cc1ccc2ccccc2c1)C(=O)N[C@H](Cc1ccc(Cl)cc1)C(=O)N[C@H](Cc1cccnc1)C(=O)N[C@@H](CO)C(=O)N[C@@H](CCCCNC(=O)c1ccccn1)C(=O)N[C@H](CCCNC(=O)c1ccc(N)nc1)C(=O)N[C@@H](CC(C)C)C(=O)N[C@@H](CCCCNC(C)C)C(=O)N1CCC[C@H]1C(=O)N[C@H](C)C(N)=O [PPL-ORN-9902] (Ac-[d2Nal][dPhe(4-Cl)][d3Pal]SK(Picolinoyl)[dOrn](Nicotinoyl(6-NH2))L[Lys(iPr)]P[dA]-NH2) |  | time to gel ([1]; 84 mg orntide acetate, 100 mg glacial acetic acid, 130 mg methanol, 1.28 g methylene chloride, warmed to 40° C.): ≤ 30 min
2 | CC(=O)O [glacial acetic acid] | less efficient than lactic and glycolic acids | 
3 | O=C(O)C(O)CO (stereo not shown) [glyceric acid] |  | pKa [3]: 3.25
4 | O=C(O)CO [glycolic acid] | prevented the related substances formation | 
5 | CC(O)C(=O)O (stereo not shown) [lactic acid] | reduced the related substances and made comparable to the control | 
6 | CC(=O)N[C@H](Cc1ccc2ccccc2c1)C(=O)N[C@H](Cc1ccc(Cl)cc1)C(=O)N[C@H](Cc1cccnc1)C(=O)N[C@@H](CO)C(=O)N[C@@H](CCCCNC(=O)c1ccccn1)C(=O)N[C@H](CCCNC(=O)c1ccc(N)nc1)C(=O)N[C@@H](CC(C)C)C(=O)N[C@@H](CCCCNC(C)C)C(=O)N1CCC[C@H]1C(=O)N[C@H](C)C(N)=O [orntide] (Ac-[d2Nal][dPhe(4-Cl)][d3Pal]SK(Picolinoyl)[dOrn](Nicotinoyl(6-NH2))L[Lys(iPr)]P[dA]-NH2) |  | solubility ([1]; aqueous media, even at a pH lower than 5): < 5000 µg/mL
7 | CCCCCCCCCCCCCCCCCC(=O)O [stearic acid] | less efficient than lactic and glycolic acids | 
